These results are taken from patent publication US11352339B2 (MISSION THERAPEUTICS LIMITED, priority 2016, dated 2022).

Some results are limits rather than exact numbers.

USP30, sequence (Q70CQ3 57-517): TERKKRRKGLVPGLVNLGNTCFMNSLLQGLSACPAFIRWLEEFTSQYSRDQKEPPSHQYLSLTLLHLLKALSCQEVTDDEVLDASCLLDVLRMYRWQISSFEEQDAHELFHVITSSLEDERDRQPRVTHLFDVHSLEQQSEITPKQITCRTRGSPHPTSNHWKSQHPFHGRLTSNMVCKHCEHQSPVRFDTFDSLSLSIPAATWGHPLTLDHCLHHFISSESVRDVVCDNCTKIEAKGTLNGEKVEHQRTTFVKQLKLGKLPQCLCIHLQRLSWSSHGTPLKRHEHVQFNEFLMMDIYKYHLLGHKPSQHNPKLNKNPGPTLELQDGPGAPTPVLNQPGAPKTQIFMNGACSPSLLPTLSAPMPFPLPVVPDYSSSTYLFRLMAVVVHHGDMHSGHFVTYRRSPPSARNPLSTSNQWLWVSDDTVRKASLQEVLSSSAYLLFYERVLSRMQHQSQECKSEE

The experiment concerns the target USP30 (Homo sapiens (Human), UniProt Q70CQ3). Nature of the experiment: USP30 Biochemical IC50 Assay. Particulars: fluorescence polarisation, TAMRA labelled peptide linked to ubiquitin; 30 min pre-incubation, read after 2 h; read-out: IC50 range. The procedure, abridged:
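Fluorescence polarisation cleavage assay, duplicate wells: substrate is a TAMRA peptide joined to ubiquitin by an iso-peptide bond (50 nM), added after 30 min room-temperature compound–enzyme incubation. Readings at 540/590 nm immediately and at 2 h.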
As for `N#CN1CCC(c2nnc(-c3cccc(-c4ccccc4)n3)[nH]2)C1` (centres unmarked) [Example 110, 3-(5-(6-Phenylpyridin-2-yl)-4H-1,2,4-triazol-3-yl)pyrrolidine-1-carbonitrile], the IC50 (in general, the concentration that inhibits the measured activity by half) is 100 to 1000 nM. `N#CN1CCC(c2n[nH]c(-c3cccc(-c4ccccc4)c3)n2)C1` (centres unmarked) [Example 111, 3-(3-([1,1′-Biphenyl]-3-yl)-1H-1,2,4-triazol-5-yl)pyrrolidine-1-carbonitrile]: the IC50 was less than 100 nM.

For `N#CN1CCC(c2nnc(-c3ccc(-c4ccccc4)cc3)[nH]2)C1` (centres unmarked) [Example 112, 3-(3-([1,1′-Biphenyl]-4-yl)-1H-1,2,4-triazol-5-yl)pyrrolidine-1-carbonitrile], the IC50 fell in the range of 100 to 1000 nM. For `N#CN1CCC(c2cc(-c3cccc(-c4ccccc4)c3)no2)C1` (centres unmarked) [Example 117, 3-(3-([1,1′-Biphenyl]-3-yl)isoxazol-5-yl)pyrrolidine-1-carbonitrile] the value was less than 100 nM; for `N#CN1CCC(c2ncc(-c3ccccc3)c(=O)[nH]2)C1` (centres unmarked) [Example 120, 3-(6-Oxo-5-phenyl-1,6-dihydropyrimidin-2-yl)pyrrolidine-1-carbonitrile], 1000 to 10000 nM. Consider `Cc1cn(-c2ccc3n(c2=O)CCN([C@@H]2CCN(C#N)C2)C3=O)cn1` [Example 121, (R)-3-(7-(4-Methyl-1H-imidazol-1-yl)-1,6-dioxo-1,3,4,6-tetrahydro-2H-pyrido[1,2-a]pyrazin-2-yl)pyrrolidine-1-carbonitrile], for which the IC50 was 1000 to 10000 nM. For `CNC(=O)c1cc(-c2ccccc2)cc2oc([C@@H]3CCCN3C#N)nc12` [Example 122, (S)-2-(1-Cyanopyrrolidin-2-yl)-N-methyl-6-phenylbenzo[d]oxazole-4-carboxamide] the value was 10000 to 100000 nM. In the case of `N#CN1CCC(c2cccc(-c3ccccc3)c2N)C1` (centres unmarked) [Example 123, 3-(2-Amino-[1,1′-biphenyl]-3-yl)pyrrolidine-1-carbonitrile], the IC50 lay within 100 to 1000 nM. As for `N#CN1CCC(c2cnc3cc(-c4ccccc4)ccn23)C1` (centres unmarked) [Example 124, 3-(7-Phenylimidazo[1,2-a]pyridin-3-yl)pyrrolidine-1-carbonitrile], the figure is 100 to 1000 nM. As for `Cc1noc(C)c1-c1ccn2c(C3CCN(C#N)C3)cnc2c1` (centres unmarked) [Example 125, 3-(7-(3,5-Dimethylisoxazol-4-yl)imidazo[1,2-a]pyridin-3-yl)pyrrolidine-1-carbonitrile], the IC50 lay in the range of 1000 to 10000 nM. As for `N#Cc1cccc(-c2ccc3oc([C@@H]4CCCN4C#N)nc3c2)c1` [Example 126, (S)-2-(5-(3-Cyanophenyl)benzo[d]oxazol-2-yl)pyrrolidine-1-carbonitrile], the IC50 lay within 100 to 1000 nM. Regarding `N#Cc1cccc(-c2ccc3oc([C@@H]4CCCN4C#N)nc3c2)n1` [Example 127, (S)-6-(2-(1-Cyanopyrrolidin-2-yl)benzo[d]oxazol-5-yl)picolinonitrile], the IC50 lay in the range of 1000 to 10000 nM. For `N#Cc1cccc(-c2ccc3nc([C@@H]4CCCN4C#N)oc3c2)c1` [Example 128, (S)-2-(6-(3-Cyanophenyl)benzo[d]oxazol-2-yl)pyrrolidine-1-carbonitrile] the value was 100 to 1000 nM. Consider `CCc1cccc(-c2ccc3oc([C@@H]4CCCN4C#N)nc3c2)c1` [Example 129, (S)-2-(5-(3-Ethylphenyl)benzo[d]oxazol-2-yl)pyrrolidine-1-carbonitrile], for which the IC50 fell in the range of 100 to 1000 nM. In the case of `CCc1cccc(-c2ccc3nc([C@@H]4CCCN4C#N)oc3c2)c1` [Example 130, (S)-2-(6-(3-Ethylphenyl)benzo[d]oxazol-2-yl)pyrrolidine-1-carbonitrile], the 50% inhibitory concentration (IC50) is 100 to 1000 nM. On to `CCc1cccc(-c2cc(C(=O)NC)c3nc([C@@H]4CCCN4C#N)oc3c2)c1` [Example 131, (S)-2-(1-Cyanopyrrolidin-2-yl)-6-(3-ethylphenyl)-N-methylbenzo[d]oxazole-4-carboxamide], for which the concentration for half-maximal inhibition (IC50) was in the range of 1000 to 10000 nM. As to `N#Cc1cccc(-c2ccc3nc([C@@H]4CCCN4C#N)oc3c2)n1` [Example 132, (S)-6-(2-(1-Cyanopyrrolidin-2-yl)benzo[d]oxazol-6-yl)picolinonitrile], the IC50 lay within 1000 to 10000 nM.
